US5066783A, “Antiviral peptides and means for treating herpes infections” (priority 1988, dated 1991)
Like-named read-outs stand apart in the source and are kept apart here. Where a SMILES comes first, the peptide text is derived from it. Bridges are numbered along the chain shown (N, C = ends). [ ]: non-standard residue; d: D form. The star is where a group is joined. Ileψ(thiazoline)Cys = CC[C@H](C)[C@H](N)C1=N[C@H](C(=O)*)CS1; Desaminotyrosyl = O=C(CCc1ccc(O)cc1)*; dOrn = NCCC[C@@H](N)C(=O)O

Experiments:
HSV-2 strain HG-52 = test: Guinea pig cutaneous herpes infection model, HSV-2; type: in vivo; conditions: for skin lesion score: HSV-2 group, mean score
HSV-1 strain MP-12 = test: Guinea pig cutaneous herpes infection model, HSV-1; type: in vivo; conditions: for skin lesion score: HSV-1 group, mean score
[1] = target: ribonucleotide reductase from HSV-1 (strain F)-infected BHK-21/C13 cells (Human herpesvirus 1, UniProt P08543); test: HSV-1 ribonucleotide reductase (CDP reductase) inhibition; conditions: for % CDP REDUCTASE ACTIVITY: 75 μg protein extract
[2] = target: T1, herpes simplex viral ribonucleotide reductase (Human herpesvirus 1, UniProt P08543); test: biochemical; type: biochemical, herpes simplex virus
T1 construct: endogenous in cells

[3] = system: cellular ribonucleotide reductase from BHK21/C13 cells; conditions: up to 1 mM; data not shown
HSV-2 = HSV-2 replication (virus yield) in serum-starved BHK 21/C13 cells; type: cell-based; conditions: 1 mM
[4] = system: HSV-1 ribonucleotide reductase; test: Neutralization of HSV-1 ribonucleotide reductase by anti-nonapeptide IgG, preadsorbed with nonapeptide; conditions: FIG. 2
[5] = system: cellular ribonucleotide reductase from 96-V-2(600) cells; conditions: up to 1 mM; FIG. 1
[6] = target: HSV-2 ribonucleotide reductase (Human herpesvirus 2, UniProt P89462); test: HSV-2 ribonucleotide reductase inhibition; type: biochemical; conditions: data not shown
From the text: The precipitate was removed by centrifugation.

HSV-1 = conditions: A. Alarcon et al., Antiviral Research, 4, 231 (1984); cited from earlier work
[7] = read-out: IC50 (concentration producing 50% of the maximal inhibition of enzyme activity)
[8] = 75 μg enzyme preparation (21.6 units mg^-1), mean of four assays
[9] = 4 hours post infection, A (after absorption)
[10] = 4 hours post infection, B (before absorption)
[11] = 12 hours post infection, A (after absorption)
[12] = 12 hours post infection, B (before absorption)
[13] = 24 hours post infection, A (after absorption)
[14] = 24 hours post infection, B (before absorption)
[15] = 36 hours post infection, A (after absorption)
[16] = 36 hours post infection, B (before absorption)

T1 sequence (P08543 whole entry): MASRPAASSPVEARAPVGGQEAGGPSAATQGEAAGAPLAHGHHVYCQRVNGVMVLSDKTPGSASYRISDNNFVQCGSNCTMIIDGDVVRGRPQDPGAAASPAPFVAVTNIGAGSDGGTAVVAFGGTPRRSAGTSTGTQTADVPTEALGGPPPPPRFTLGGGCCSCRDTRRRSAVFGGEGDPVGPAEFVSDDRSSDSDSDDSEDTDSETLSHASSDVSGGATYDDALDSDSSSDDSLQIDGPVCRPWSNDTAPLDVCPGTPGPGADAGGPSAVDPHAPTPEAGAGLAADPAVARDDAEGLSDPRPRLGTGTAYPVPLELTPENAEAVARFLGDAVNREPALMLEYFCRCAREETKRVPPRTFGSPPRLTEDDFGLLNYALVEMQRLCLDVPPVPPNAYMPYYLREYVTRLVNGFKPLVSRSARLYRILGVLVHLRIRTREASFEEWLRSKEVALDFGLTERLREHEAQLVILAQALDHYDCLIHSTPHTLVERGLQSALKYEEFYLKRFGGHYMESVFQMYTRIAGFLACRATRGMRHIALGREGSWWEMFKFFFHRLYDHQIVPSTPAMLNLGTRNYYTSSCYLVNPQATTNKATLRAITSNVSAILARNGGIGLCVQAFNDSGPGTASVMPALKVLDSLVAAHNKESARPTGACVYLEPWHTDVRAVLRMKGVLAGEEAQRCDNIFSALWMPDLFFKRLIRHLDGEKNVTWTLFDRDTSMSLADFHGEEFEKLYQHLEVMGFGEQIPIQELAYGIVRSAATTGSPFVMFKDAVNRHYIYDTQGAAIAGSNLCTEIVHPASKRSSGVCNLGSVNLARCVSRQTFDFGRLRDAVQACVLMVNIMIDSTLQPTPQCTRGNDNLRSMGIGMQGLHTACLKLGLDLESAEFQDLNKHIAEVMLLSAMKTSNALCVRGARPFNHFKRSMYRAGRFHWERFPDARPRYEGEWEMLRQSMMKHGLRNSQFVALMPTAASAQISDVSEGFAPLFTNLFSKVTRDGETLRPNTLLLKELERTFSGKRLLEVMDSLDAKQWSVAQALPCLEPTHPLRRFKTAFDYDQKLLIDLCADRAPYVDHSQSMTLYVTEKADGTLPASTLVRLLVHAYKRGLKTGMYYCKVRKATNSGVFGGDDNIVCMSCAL
ribonucleotide reductase from HSV-1 (strain F)-infected BHK-21/C13 cells, sequence (P08543 whole entry): as above
HSV-2 ribonucleotide reductase, sequence (P89462 whole entry): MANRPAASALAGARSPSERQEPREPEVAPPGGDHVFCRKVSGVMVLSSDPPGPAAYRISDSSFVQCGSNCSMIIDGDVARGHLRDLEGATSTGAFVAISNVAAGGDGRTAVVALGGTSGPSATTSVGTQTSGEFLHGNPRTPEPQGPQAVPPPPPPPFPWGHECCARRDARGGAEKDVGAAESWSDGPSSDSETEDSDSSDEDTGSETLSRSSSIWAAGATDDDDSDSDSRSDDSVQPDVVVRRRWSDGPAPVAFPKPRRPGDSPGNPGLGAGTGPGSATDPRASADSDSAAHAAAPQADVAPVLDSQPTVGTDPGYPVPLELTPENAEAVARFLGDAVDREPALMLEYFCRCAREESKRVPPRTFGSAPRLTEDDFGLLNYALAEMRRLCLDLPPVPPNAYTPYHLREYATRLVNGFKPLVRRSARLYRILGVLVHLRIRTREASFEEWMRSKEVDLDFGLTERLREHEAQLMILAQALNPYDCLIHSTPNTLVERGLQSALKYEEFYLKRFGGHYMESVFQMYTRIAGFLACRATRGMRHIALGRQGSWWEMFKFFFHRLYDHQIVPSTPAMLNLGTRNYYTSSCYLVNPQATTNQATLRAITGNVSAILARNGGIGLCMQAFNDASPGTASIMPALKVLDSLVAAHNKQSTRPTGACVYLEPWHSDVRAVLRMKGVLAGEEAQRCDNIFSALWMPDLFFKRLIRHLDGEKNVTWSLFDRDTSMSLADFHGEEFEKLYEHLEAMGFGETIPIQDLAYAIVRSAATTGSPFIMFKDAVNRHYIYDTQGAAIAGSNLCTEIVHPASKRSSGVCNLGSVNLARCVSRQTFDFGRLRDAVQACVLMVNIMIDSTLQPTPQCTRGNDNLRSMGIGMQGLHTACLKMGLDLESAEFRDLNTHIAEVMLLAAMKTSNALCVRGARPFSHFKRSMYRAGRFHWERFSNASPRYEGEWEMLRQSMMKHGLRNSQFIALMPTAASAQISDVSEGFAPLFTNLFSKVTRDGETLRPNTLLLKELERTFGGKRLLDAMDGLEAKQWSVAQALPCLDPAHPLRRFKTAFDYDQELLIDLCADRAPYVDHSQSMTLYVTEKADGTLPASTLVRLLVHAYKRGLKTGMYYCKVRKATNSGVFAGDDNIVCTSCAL

Nc1nc2c(ncn2COCCO)c(=O)[nH]1 [Acyclovir, acyclovir]
skin lesion score (HSV-2 strain HG-52; day 1, topical twice daily): 0.50 | skin lesion score (HSV-2 strain HG-52; day 2, topical twice daily): 0.50 | skin lesion score (HSV-2 strain HG-52; day 3, topical twice daily): 0.63 | skin lesion score (HSV-2 strain HG-52; day 4, topical twice daily): 0.67 | skin lesion score (HSV-2 strain HG-52; day 5, topical twice daily): 1.23 | skin lesion score (HSV-2 strain HG-52; day 6, topical twice daily): 0.57 | skin lesion score (HSV-2 strain HG-52; day 7, topical twice daily): 0.40 | skin lesion score (HSV-2 strain HG-52; day 8, topical twice daily): 0.13 | skin lesion score (HSV-2 strain HG-52; day 9, topical twice daily): 0.13 | skin lesion score (HSV-2 strain HG-52; day 10, topical twice daily): 0.00 | skin lesion score (HSV-2 strain HG-52; day 11, topical twice daily): 0.00 | skin lesion score (HSV-1 strain MP-12; day 1, topical twice daily): 0.50 | skin lesion score (HSV-1 strain MP-12; day 2, topical twice daily): 0.50 | skin lesion score (HSV-1 strain MP-12; day 3, topical twice daily): 0.28 | skin lesion score (HSV-1 strain MP-12; day 4, topical twice daily): 0.20 | skin lesion score (HSV-1 strain MP-12; day 5, topical twice daily): 0.20 | skin lesion score (HSV-1 strain MP-12; day 6, topical twice daily): 0.20 | skin lesion score (HSV-1 strain MP-12; day 7, topical twice daily): 0.15 | skin lesion score (HSV-1 strain MP-12; day 8, topical twice daily): 0.00 | skin lesion score (HSV-1 strain MP-12; day 9, topical twice daily): 0.00 | skin lesion score (HSV-1 strain MP-12; day 10, topical twice daily): 0.00 | skin lesion score (HSV-1 strain MP-12; day 11, topical twice daily): 0.00

H-YTMLVVDDL-OH [EBV 7-15]
% CDP REDUCTASE ACTIVITY ([1]; 10 μM peptide): 100% | % CDP REDUCTASE ACTIVITY ([1]; 25 μM peptide): 100% | % CDP REDUCTASE ACTIVITY ([1]; 50 μM peptide): 100% | % CDP REDUCTASE ACTIVITY ([1]; 100 μM peptide): 70% | % CDP REDUCTASE ACTIVITY ([1]; 400 μM peptide): 10%

CC(C)C[C@H](NC(=O)[C@H](CC(=O)O)NC(=O)[C@H](CC(N)=O)NC(=O)[C@@H](NC(=O)[C@@H](NC(=O)[C@H](C)NC(=O)CNC(=O)[C@H](C)NC(=O)[C@@H](N)Cc1ccc(O)cc1)C(C)C)C(C)C)C(N)=O [H--Tyr--Ala--Gly--Ala--Val--Val--Asn--Asp--Leu--NH2]
IC50 [2, 7]: 190 µM

H-FAGAVVNDL-OH [H--Phe--Ala--Gly--Ala--Val--Val--Asn--Asp--Leu--OH]
IC50 [2]: 68 µM

CC(=O)N[C@@H](Cc1ccc(O)cc1)C(=O)N[C@H](C)C(=O)NCC(=O)N[C@@H](C)C(=O)N[C@H](C(=O)N[C@H](C(=O)N[C@@H](CC(N)=O)C(=O)N[C@@H](CC(=O)O)C(=O)N[C@@H](CC(C)C)C(=O)O)C(C)C)C(C)C [Ac--Tyr--D--Ala--Gly--Ala--Val--Val--Asn--Asp-- Leu--OH]
IC50 [2, 7]: 230 µM

Ac-YSVINDL-OH [Ac--Tyr--Ser--Val--Ile--Asn--Asp--Leu--OH]
IC50 [2]: 77 µM

Ac-YAGTVIQDL-OH [Ac--Tyr--Ala--Gly--Thr--Val--Ile--Gln--Asp--Leu--OH]
IC50 [2]: 36.5 µM

H-YSGAVVNDL-OH [H--Tyr--Ser--Gly--Ala--Val--Val--Asn--Asp--Leu--OH]
IC50 [2, 8]: 90 µM

CC(=O)N[C@H](Cc1ccc(O)cc1)C(=O)N[C@@H](C)C(=O)NCC(=O)N[C@@H](C)C(=O)N[C@H](C(=O)N[C@H](C(=O)N[C@@H](CC(N)=O)C(=O)N[C@@H](CC(=O)O)C(=O)N[C@@H](CC(C)C)C(=O)O)C(C)C)C(C)C [Ac--D--Tyr--Ala--Gly--Ala--Val--Val--Asn--Asp--Leu--OH]
IC50 [2, 7]: 165 µM

Ac-YGAVVNDL-OH [Ac--Tyr--Gly--Ala--Val--Val--Asn--Asp--Leu--OH]
IC50 [2, 7]: 150 µM

Ac-YVINDL-OH [Ac--Tyr--Val--Ile--Asn--Asp--Leu--OH]
IC50 [2]: 27 µM

CC(C)C[C@H](NC(=O)[C@H](CC(=O)O)NC(=O)[C@H](CC(N)=O)NC(=O)[C@@H](NC(=O)[C@@H](NC(=O)[C@H](C)NC(=O)CNC(=O)[C@H](C)NC(=O)[C@H](Cc1ccc(O)cc1)NC(=O)CCCCCCCN)C(C)C)C(C)C)C(=O)O [NH2 (CH2)7 CO--Tyr--Ala--Gly--Ala--Val--Val--Asn--Asp--Leu--OH]
IC50 [2, 8]: 12.3 µM

CC[C@H](C)[C@H](NC(=O)[C@@H](NC(=O)CCc1ccc(O)cc1)C(C)C)C(=O)N[C@@H](CC(N)=O)C(=O)N[C@@H](CC(=O)O)C(=O)N[C@@H](CC(C)C)C(=O)O [desamino-Tyr--Val--Ile--Asn--Asp--Leu--OH] (Desaminotyrosyl-VINDL-OH)
IC50 [2]: 17 µM

H-YAVVNDL-OH [H--Tyr--Ala--Val--Val--Asn--Asp--Leu--OH]
IC50 [2, 7]: 340 µM

H-STSYAGAVVNDL-OH [HSV 4-15]
% CDP REDUCTASE ACTIVITY ([1]; 10 μM peptide): 87% | % CDP REDUCTASE ACTIVITY ([1]; 25 μM peptide): 71% | % CDP REDUCTASE ACTIVITY ([1]; 50 μM peptide): 47% | % CDP REDUCTASE ACTIVITY ([1]; 100 μM peptide): 18% | % CDP REDUCTASE ACTIVITY ([1]; 400 μM peptide): 11%

CC(C)C[C@H](NC(=O)[C@H](CC(=O)O)NC(=O)[C@H](CC(N)=O)NC(=O)[C@@H](NC(=O)[C@@H](NC(=O)[C@H](C)NC(=O)CNC(=O)[C@H](C)NC(=O)[C@@H](N)Cc1ccc(O)cc1)C(C)C)C(C)C)C(=O)O [HSV 7-15, L-tyrosyl-L-alanyl-glycyl-L-alanyl-L-valyl-L-valyl-L-asparagyl-L-aspartyl- L-leucine]
sensitivity of cellular enzyme to the peptide [3]: completely insensitive | virus titer (HSV-2; [9]): 0.001 PFU/cell | virus titer (HSV-2; [10]): 0.0006 PFU/cell | virus titer (HSV-2; [11]): 0.01 PFU/cell | virus titer (HSV-2; [12]): 0.006 PFU/cell | virus titer (HSV-2; [13]): 0.5 PFU/cell | virus titer (HSV-2; [14]): 0.4 PFU/cell | virus titer (HSV-2; [15]): 1.1 PFU/cell | virus titer (HSV-2; [16]): 0.8 PFU/cell | % CDP REDUCTASE ACTIVITY ([1]; 10 μM peptide): 96% | % CDP REDUCTASE ACTIVITY ([1]; 25 μM peptide): 94% | % CDP REDUCTASE ACTIVITY ([1]; 50 μM peptide): 80% | % CDP REDUCTASE ACTIVITY ([1]; 100 μM peptide): 45% | % CDP REDUCTASE ACTIVITY ([1]; 400 μM peptide): 9% | concentration giving total inhibition ([1]; FIG. 1, 50 μg viral enzyme): 400 µM | nonapeptide concentration at which equivalence was reached (IgG neutralizing capacity eliminated) [4]: 10 µM | shortening healing time and alleviating the symptoms of HSV-2 (HSV-2 strain HG-52; summary of TABLE IV): effective | sensitivity of cellular enzyme to the peptide [5]: completely insensitive | shortening the healing time and diminishing the symptoms of HSV-1 infection (HSV-1 strain MP-12; summary of TABLE III): effective | inhibition curve for the HSV-2 enzyme compared with HSV-1 [6]: nearly identical

Ac-YAGFVINDL-OH [Ac--Tyr--Ala--Gly--Phe--Val--Ile--Asn--Asp--Leu--OH]
IC50 [2, 8]: 4.2 µM

CC[C@H](C)[C@H](N)C1=N[C@H](C(=O)N[C@@H](CC(C)C)C(=O)N[C@H](CCC(=O)O)C(=O)N[C@H](C(=O)N[C@H]2CCCCNC(=O)[C@H](CC(N)=O)NC(=O)[C@@H](CC(=O)O)NC(=O)[C@H](Cc3cnc[nH]3)NC(=O)[C@@H](Cc3ccccc3)NC(=O)[C@H]([C@@H](C)CC)NC(=O)[C@@H](CCCN)NC2=O)[C@@H](C)CC)CS1 [Bacitracin, bacitracin, reference compound] ({Ileψ(thiazoline)Cys}-L[dE]IK[dOrn]I[dF]H[dD]N; lactam 4-C)
activity against HSV-1 when used alone (HSV-1): inactive | virus titer (HSV-2; [9]): 0.0005 PFU/cell | virus titer (HSV-2; [10]): 0.0007 PFU/cell | virus titer (HSV-2; [11]): 0.007 PFU/cell | virus titer (HSV-2; [12]): 0.005 PFU/cell | virus titer (HSV-2; [13]): 0.06 PFU/cell | virus titer (HSV-2; [14]): 0.06 PFU/cell | virus titer (HSV-2; [15]): 0.06 PFU/cell | virus titer (HSV-2; [16]): 0.03 PFU/cell

Ac-YAGTIVNDL-OH [Ac--Tyr--Ala--Gly--Thr--Ile--Val--Asn--Asp--Leu--OH]
IC50 [2]: 4.9 µM

CC[C@H](C)[C@H](NC(=O)[C@@H](NC(=O)[C@H](Cc1ccc(OC)cc1)NC(C)=O)C(C)C)C(=O)N[C@@H](CC(N)=O)C(=O)N[C@@H](CC(=O)O)C(=O)N[C@@H](CC(C)C)C(=O)O [Ac--Tyr(OMe)--Val--Ile--Asn--Asp--Leu--OH] (Ac-Y(Me)VINDL-OH)
IC50 [2]: 24 µM

H-KYAGAVVNDL-OH [H--Lys--Tyr--Ala--Gly--Ala--Val--Val--Asn--Asp--Leu--OH]
IC50 ([2]; read-out: IC50 (concentration producing 50% of the maximal inhibition of enzyme activity), 75 μg enzyme preparation (21.6 units mg^-1), mean of four assays): 68 µM

Ac-YAGVVINDL-OH [Ac--Tyr--Ala--Gly--Val--Val--Ile--Asn--Asp--Leu--OH]
IC50 ([2]; IC50 (concentration producing 50% of the maximal inhibition of enzyme activity)): 4.3 µM
